In article PMC6624297 (Cell Death & Disease, 2019):

Columns and labels:
H460 cells = assay: Annexin V/PI staining flow cytometry, H460; format: cell-based, human; conditions: 24 h
Description: The density of the A549 cells and H460 in the logarithmic growth phase was adjusted to 1 × 10^6 cells/mL, and a total of 1 mL of cell suspension and 1 mL of L14e at different concentrations were added into each well with the final compound L14e concentration in each group as 0, 0.5, 1.0, and 1.5 μM. Details are given in Supplementary Materials and Methods.
The density of the A549 cells and H460 in the logarithmic growth phase was adjusted to 1 × 10^6 cells/mL, and then the cell suspension was seeded into a 6-well plate (Becton Dickinson and Company, USA). A total of 1 mL of cell suspension and 1 mL of compound L14e at different concentrations were added into each well with the final compound L14e concentration in each group as 0 μM, 0.5 μM, 1.0 μM, and 1.5μM. After cells were incubated for 24 h at 37 °C, 1 mL of cell suspension per well was collected and centrifuged at 1000 r/min for 10 min at 4°C, and the supernatant was removed. Then, 1 mL of cold PBS was added to the cell pellet, and was shaken lightly to re-suspend the cells. The cells were centrifuged at 1000 r/min at 4 °C for 10 min, and the supernatant was removed. These steps were repeated twice. The cells were re-suspended in 150µL of PBS, 10 µL of fluorescein isothiocyanate (FITC)-labeled Annexin V (Annexin V-FITC) (Promega Corporation, USA) and 5 µL of PI (Promega Corporation, USA) were added. The mixture was gently mixed and incubated in the dark at room temperature for 10 min then stained cells were analyzed using flow cytometry to test the levels of apoptotic cells (Becton Dickinson and Company, USA; FACS Calibur).

HPAEpiC cell line = assay: Selectivity index against HPAEpiC; format: cell-based; conditions: SI = CC50/IC50
FVB mice = assay: Toxicity test in FVB mice; format: in vivo; conditions: 3 weeks
Description: Blood was collected from euthanized mice under isoflurane-induced deep anesthesia by cardiac puncture. After allowing blood coagulation at 4 °C, serum was collected by centrifugation at 3000 rpm for 10 min at 4 °C. Analysis of the level of ALT, AST, Glu and CRE in the serum was performed using a veterinary hematology analyzer (Fuji DRI-Chem 3500 s, Fujifilm, Tokyo, Japan) according to the manufacturer’s provided protocols. The histopathological changes in liver, lung, brain, and kidney were evaluated by using HE-stained section of the tissues (This part of the results is in the supplementary document).
Tissues were fixed in 10% neutral-buffered formalin for 24 h, embedded in paraffin, cut into 4-μm-thick sections, deparaffinized with xylene and processed with a graded ethanol series. Next, the sections were stained with HE and were observed using Eclipse Ts2 microscope (Nikon).

[1] = system: P53, caspase-3, bcl-2/bax, cleaved caspase-3; assay: Western blot apoptotic proteins, A549; format: cell-based, human; conditions: A549, 0.5, 1.0, 1.5 μM, 24 h
Description: (§1) A549 cells, H460 cells and HUVECs were treated with different concentrations of compound L14e for 24 h. Primary antibodies (100 μL/cm^2): P53(10442-1-AP, Proteintech Group),caspase-3 (19677-1-AP, Proteintech Group), bax (50599-2-lg, Proteintech Group), bcl-2 (12789-1-AP, Proteintech Group), cleaved caspase-3 (25546-1-AP, Proteintech Group), β-actin (60008-1-lg, Proteintech Group), EGFR (ab21074, Abcam), AKT (#2920, Cell Signaling Technology), ERK1/2 (#4370, Cell Signaling Technology), VEGFR-2 (#9698, Cell Signaling Technology), p-EGFR (ab40815, Abcam), p-AKT (#4060, Cell Signaling Technology), p-ERK1/2 (#4695, Cell Signaling Technology), p-VEGFR-2 (#3770, Cell Signaling Technology), and GAPDH (ab181603, Abcam). The cellular levels of proteins were determined by standard Western blotting. Details were given in Supplementary Materials and Methods.
(§2) A549 cells, H460 cells and HUVECs were treated with different concentrations of compound L14e for 24 h, and collected to establish their respective treatment groups. […]
(§3) Extracted proteins were separated from each other using polyacrylamide electrophoresis on a 10 % gel (Beyotime Biotechnology Company, Shanghai, China) and transferred to a polyvinylidene fluoride (PVDF) membrane. […] Gray values of protein bands were quantitatively analyzed, with the gray value of β-actin(GAPDH) band as the reference.

GES-1 cell line = assay: Selectivity index against GES-1; format: cell-based; conditions: SI = CC50/IC50
p-EGFR, p-AKT, p-ERK1/2 = assay: Western blot EGFR signaling pathway, A549; format: cell-based, human; conditions: A549, 0.5, 1.0, 1.5 μM, 24 h, EGF 50 ng/ml
Description: as §1, §2, §3

For `O=C(Nc1cccc(Cl)c1)Nc1ccccc1NS(=O)(=O)c1c[nH]c(=O)[nH]c1=O` [Compound L14e, N'-(3-chlorophenyl)-2-(2,4-dihydroxypyrimidine-5-sulfonamido)phenyl urea], the apoptotic rate (H460 cells; H460, 0.5 μM) was 6.4%, the “early apoptosis rate (Q4, Annexin V [+] PI [−])” value (“early apoptosis rate” below) (H460 cells; H460, 0.5 μM) was 3.9% and the apoptotic rate (H460 cells; H460, 1.0 μM) was 21.8%. For the same compound, the “early apoptosis rate” value (H460 cells; H460, 1.0 μM) was 15.1%, the apoptotic rate (H460 cells; H460, 1.5 μM) was 24.4% and the “early apoptosis rate” value (H460 cells; H460, 1.5 μM) was 17.3%. For the same compound, the “SI (Selectivity index) HPAEpiC” value (HPAEpiC cell line) was 19.79, the “changes in body weight compared with control mice” value (FVB mice; FVB mice, 40, 80, 160 mg/kg) was “minimal” and the “serum levels of AST, ALT, GLU and creatinine” value (FVB mice; FVB mice, 40, 80, 160 mg/kg) was “within the reference ranges”. For the same compound, the “toxicity to mice (overall)” value (FVB mice; FVB mice, 40, 80, 160 mg/kg) was “minimal toxicity”, the “histopathological changes in liver, lung, brain, and kidney (HE staining)” value (FVB mice; mice) was “no visible pathological changes” and the “expression of P53, bax, bcl-2, cleaved caspase-3” value [1] was “over expression of P53, up-regulation of bax and down-regulation of bcl-2”. The “SI (Selectivity index) GES-1” value (GES-1 cell line) was 8.58 and the “expression of phosphorylated EGFR (Tyr1068) and AKT (Ser473)” value (p-EGFR, p-AKT, p-ERK1/2) was “significantly reduced”.
